Source: US20240401027A1, “METHOD FOR IMPROVED INTRON TAGGING AND AUTOMATED CLONE RECOGNITION” (PROXYGEN GMBH, priority 2021, published 2024)

System: pool of HAP1 cells expressing GFP-tagged proteins
Test: Live cell imaging of GFP-tagged HAP1 cell pool and arrayed clones: compound effects on levels and localization of tagged proteins
Assay type: cell-based, human
Protocol: Live cell imaging was performed on a PerkinElmer Opera Phenix microscope with excitation laser 488 nm, and emission filter 500-550 nm, 700 ms.
Identification of the expressed sgRNAs by in situ sequencing was performed by following and modifying published protocols, see, e.g., Feldman (2019) loc. cit; Ke (2013) Nat Methods 10, 857-60; and Larsson (2010) Nat Methods 7, 395-7.
Reverse transcription mix (1× RevertAid RT buffer, 250 µM dNTPs, 0.2 mg/mL BSA, 1 µM RT primer, 0.8 U/mL Ribolock RNase inhibitor, and 4.8 U/mL RevertAid H minus reverse transcriptase) was added to the sample and incubated for 16 hours at 37° C. Following reverse transcription, cells were washed 5 times with PBS-T and post-fixed with 3% paraformaldehyde and 0.1% glutaraldehyde for 30 minutes at room temperature and washed 5 times with PBS-T. Cells were incubated in a padlock probe and extension-ligation reaction mix (1× Ampligase buffer, 0.4 U/mL RNase H, 0.2 mg/mL BSA, 100 nM padlock probe, 0.02 U/mL KlenTaq polymerase, 0.5 U/mL Ampligase and […]) for 5 minutes at 37° C. and 90 minutes at 45° C., and then washed 2 times with PBS-T. Circularized padlocks were amplified with rolling circle amplification mix (1× Phi29 buffer, 250 µM dNTPs, 0.2 mg/mL BSA, 5% glycerol, and 1 U/mL Phi29 DNA polymerase) at 30° C. for 4 hours. Rolling circle amplicons were prepared for sequencing by hybridizing a mix containing sequencing primer oSBS_CROP-seq (1 µM primer in 2×SSC+10% formamide) for 30 minutes at room temperature. Barcodes were read out using sequencing-by-synthesis reagents from the Illumina NextSeq 500/550 kit v2 (Illumina 15057934). First, samples were washed with incorporation buffer (NextSeq 500/550 buffer cartridge, position 35) and incubated for 4 minutes in incorporation mix (NextSeq 500/550 reagent cartridge, position 31) at 60° C. Samples were then washed with incorporation buffer (4 washes, 60° C. for 4 minutes at the last wash) and placed in scan mix (NextSeq 500/550 reagent cartridge, position 30) for imaging. Imaging was performed on a PerkinElmer Opera Phenix microscope with excitation laser: 561 nm, emission filter: 570-630, 500 ms; excitation laser: 640 nm, emission filter: 650-760 nm, 500 ms using a 63× water immersion objective, confocal mode. Based were detected as follows: Base T: signal in 561 channel; Base C: signal in 640 channel, Base A: (weaker) signal in both channels, Base G: no signal. Following each imaging cycle, samples were washed with the cleavage mix (NextSeq 500/550 reagent cartridge, position 29) once followed by incubation with cleavage mix for 4 minutes at 60° C. to remove dye terminators. Samples were washed 5 times with incorporation buffer before starting the next cycle.
It was reasoned that the highly diverse pool of cells expressing GFP-tagged proteins can be used to identify compounds that change protein levels or localization of any of the tagged proteins. […] The application of the CROP-seq vector16 that expresses the sgRNA sequence in a polyadenylated mRNA transcript enables the cell-specific identification of the targeted intron by situ sequencing (see also Feldman, D. et al. Cell 179, 787-799 e17 (2019), Ke, R. et al. Nat Methods 10, 857-60 (2013), Larsson, C. et al. Nat Methods 7, 395-7 (2010). 17-19). To map targeted introns, the cell pool was fixed and a modified in situ sequencing protocol was developed to identify the sgRNA sequence integrated into individual cells in the pool. Based on the library diversity, eight cycles of nucleotide incorporation and imaging are sufficient to unambiguously assign sgRNA sequences (FIG. 6c). Application of this protocol to the cell pool confirmed that in clones with drastic loss of signal GFP was indeed targeted to BRD4 (FIG. 6d).
Therefore, the cell pool was treated with methotrexate (MTX), an antimetabolite impairing DNA and RNA synthesis and causing DNA damage by inhibiting tetrahydrofolate metabolism. […]

[1] = dBET6-treated cell pool, FIG. 6e

Compound: Cc1sc2c(c1C)C(c1ccc(Cl)cc1)=N[C@@H](CC(=O)NCCCCCCCCNC(=O)COc1cccc3c1C(=O)N(C1CCC(=O)NC1=O)C3=O)c1nnc(C)n1-2 (some centres unmarked) [dBET6]
- AKAP8 localization [1]: gain of nuclear foci
- FUBP3 localization [1]: loss of subnuclear localization patterns
- MEAF1 localization [1]: loss of subnuclear localization patterns
- SFPQ localization [1]: gain of nuclear foci
- UNG nuclear intensity [1]: loss of nuclear intensity

Compound: CN(Cc1cnc2nc(N)nc(N)c2n1)c1ccc(C(=O)N[C@@H](CCC(=O)O)C(=O)O)cc1 [methotrexate]
- DR1 nuclear signal (1 µM methotrexate (FIG. 10)): gain of nuclear signal
- GFP-tagged RPA1 localization (1 µM methotrexate (FIG. 10)): formation of nuclear foci
- GFP-tagged RPA2 localization (1 µM methotrexate (FIG. 10)): formation of nuclear foci
- NUDT21 nuclear signal (1 µM methotrexate (FIG. 10)): gain of nuclear signal
- PADI1 protein (1 µM methotrexate (FIG. 10)): decreases
- RUVBL1 protein (1 µM methotrexate (FIG. 10)): decreases
- TPI1 nuclear signal (1 µM methotrexate (FIG. 10)): gain of nuclear signal
- nuclear DNMT1 foci (1 µM methotrexate (FIG. 10)): disappearance of nuclear DNMT1 foci
- GFP-tagged ACLY localization (24 h MTX treatment, 1 µM methotrexate (FIG. 10)): increased nuclear localization
